Measurements from ChEMBL document CHEMBL5518235, “Identification of Novel Series of Potent and Selective Relaxin Family Peptide Receptor 1 (RXFP1) Agonists” (J Med Chem, 2024).
pEC50, pIC50: −log10 of the molar value. Blank lines part the entries; values can stand above or below the compound they belong to. Active and inactive are the calls of the source. The calls are words filed in the database; no cut-off is given here.

Assays:
[1] = target: T1, Relaxin receptor 1 (Homo sapiens) (UniProt Q9HBX9); assay: Displacement of [125I]relaxin H2 from human RXFP1 expressed in CHO cells incubated for 90 mins by radioligand binding assay; type: cell-based
T1 sequence (whole entry): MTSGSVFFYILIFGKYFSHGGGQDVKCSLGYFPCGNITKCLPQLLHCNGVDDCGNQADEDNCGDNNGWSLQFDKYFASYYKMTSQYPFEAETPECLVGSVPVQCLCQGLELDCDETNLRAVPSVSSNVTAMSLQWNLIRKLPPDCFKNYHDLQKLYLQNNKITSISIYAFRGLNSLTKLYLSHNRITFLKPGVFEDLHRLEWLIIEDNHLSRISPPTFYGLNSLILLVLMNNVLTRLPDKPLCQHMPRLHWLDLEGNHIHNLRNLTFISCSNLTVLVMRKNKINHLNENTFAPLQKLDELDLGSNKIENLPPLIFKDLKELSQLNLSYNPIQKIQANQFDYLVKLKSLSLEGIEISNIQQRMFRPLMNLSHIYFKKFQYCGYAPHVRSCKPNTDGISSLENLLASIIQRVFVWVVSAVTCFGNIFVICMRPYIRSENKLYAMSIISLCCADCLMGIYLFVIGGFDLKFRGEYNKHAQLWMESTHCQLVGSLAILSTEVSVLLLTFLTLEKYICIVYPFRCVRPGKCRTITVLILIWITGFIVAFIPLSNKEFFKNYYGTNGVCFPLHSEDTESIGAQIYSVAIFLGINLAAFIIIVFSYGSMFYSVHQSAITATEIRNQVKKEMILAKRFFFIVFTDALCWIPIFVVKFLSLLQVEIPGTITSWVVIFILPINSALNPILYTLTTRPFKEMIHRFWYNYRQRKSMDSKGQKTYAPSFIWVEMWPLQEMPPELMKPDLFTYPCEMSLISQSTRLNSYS

[2] = Lipophilicity, logD of the compound in 1-octanol and phosphate buffer at pH 7.4 incubated for 3 hrs by shake flask method based LC/MS/MS analysis; type: physicochemical; settings: 1-octanol/phosphate buffer, pH 7.4
[3] = target: T1, Relaxin receptor 1 (Homo sapiens); assay: Agonist activity at human RXFP1 expressed in T-Rex-CHO-K1 cells assessed as stimulation of cAMP production by measuring maximal efficacy at 50 uM incubated for 45 mins by HTRF assay relative to control; type: functional, cell-based; settings: filed as agonist
Relaxin receptor 1 [4] = target: T2, Relaxin receptor 1 (Homo sapiens, UniProt Q9HBX9); assay: Agonist activity at human RXFP1 expressed in T-Rex-CHO-K1 cells assessed as stimulation of cAMP production incubated for 45 mins by HTRF assay; type: functional, cell-based
T2 sequence (Q9HBX9 whole entry): T1 sequence (whole entry)

[5] = Metabolic stability in cryopreserved human hepatocytes assessed as unbound intrinsic clearance measured per 10^6 cells at 1 uM measured after 120 mins by LC-MS/MS analysis; type: ADME, cell-based, Hepatocyte; settings: 2 h
[6] = Metabolic stability in cryopreserved human hepatocytes assessed as intrinsic clearance measured per 10^6 cells at 1 uM after 120 mins by LC-MS/MS analysis; type: ADME, cell-based, Hepatocyte
[7] = target: T1, Relaxin receptor 1 (Homo sapiens); assay: Agonist activity at human RXFP1 expressed in T-Rex-CHO-K1 cells assessed as stimulation of cAMP production at 50 uM incubated for 45 mins by HTRF assay relative to control; type: functional, cell-based; settings: filed as agonist
[8] = Metabolic stability in human liver microsomes assessed as unbound intrinsic clearance at 1 uM incubated for 30 mins in presence of NADPH by LC-MS/MS analysis; type: ADME, Microsome; settings: 0.5 h
[9] = Metabolic stability in Han Wistar rat hepatocytes assessed as intrinsic clearance measured per 10^6 cells at 1 uM after 120 mins by LC-MS/MS analysis; type: ADME, cell-based, Hepatocyte; settings: read-out: CLH
[10] = Metabolic stability in human liver microsomes assessed as intrinsic clearance at 1 uM incubated for 30 mins in presence of NADPH by LC-MS/MS analysis; type: ADME, Microsome; settings: liver microsomes, read-out: CLH
[11] = Metabolic stability in Han Wistar rat hepatocytes assessed as unbound intrinsic clearance measured per 10^6 cells at 1 uM after 120 mins by LC-MS/MS analysis; type: ADME, cell-based, Hepatocyte; settings: 2 h
[12] = Clearance in Han Wistar rat at 0.76 micromol/kg, iv by LC-MS/MS analysis; type: ADME, organism-based; settings: in vivo, dose 0.76 µmol/kg
[13] = Protein binding in rat plasma assessed as free fraction at 5 uM incubated for 18 hrs by equilibrium dialysis based LC-MS/MS analysis; type: ADME, cell-free
[14] = Volume of distribution at steady state in Han Wistar rat at 0.76 micromol/kg, iv by LC-MS/MS analysis; type: ADME, organism-based; settings: in vivo, dose 0.76 µmol/kg, read-out: Vdss
[15] = Half-life in Han Wistar rat at 0.76 micromol/kg, iv by LC-MS/MS analysis; type: ADME, organism-based; settings: in vivo, dose 0.76 µmol/kg
[16] = Cytotoxicity against human HepG2 cells cultured as C3a spheroids assessed as reduction in cell viability; type: toxicity, cell-based
[17] = Cytotoxicity against human HepG2 cells cultured under glucose condition assessed as reduction in cell viability; type: toxicity, cell-based
[18] = target: T3, Relaxin receptor 1 (Rattus norvegicus) (UniProt Q6R6I6); assay: In vivo agonist activity at RXFP1 in Sprague-Dawley rat assessed as hemodynamic effect by measuring increase in blood pressure at 3.5 mg/kg, iv administered via bolus followed by 6.0 mg/kg, iv administered via infusion for 3 hrs and measured 1 hrs post washout; type: functional, organism-based
T3 sequence (whole entry): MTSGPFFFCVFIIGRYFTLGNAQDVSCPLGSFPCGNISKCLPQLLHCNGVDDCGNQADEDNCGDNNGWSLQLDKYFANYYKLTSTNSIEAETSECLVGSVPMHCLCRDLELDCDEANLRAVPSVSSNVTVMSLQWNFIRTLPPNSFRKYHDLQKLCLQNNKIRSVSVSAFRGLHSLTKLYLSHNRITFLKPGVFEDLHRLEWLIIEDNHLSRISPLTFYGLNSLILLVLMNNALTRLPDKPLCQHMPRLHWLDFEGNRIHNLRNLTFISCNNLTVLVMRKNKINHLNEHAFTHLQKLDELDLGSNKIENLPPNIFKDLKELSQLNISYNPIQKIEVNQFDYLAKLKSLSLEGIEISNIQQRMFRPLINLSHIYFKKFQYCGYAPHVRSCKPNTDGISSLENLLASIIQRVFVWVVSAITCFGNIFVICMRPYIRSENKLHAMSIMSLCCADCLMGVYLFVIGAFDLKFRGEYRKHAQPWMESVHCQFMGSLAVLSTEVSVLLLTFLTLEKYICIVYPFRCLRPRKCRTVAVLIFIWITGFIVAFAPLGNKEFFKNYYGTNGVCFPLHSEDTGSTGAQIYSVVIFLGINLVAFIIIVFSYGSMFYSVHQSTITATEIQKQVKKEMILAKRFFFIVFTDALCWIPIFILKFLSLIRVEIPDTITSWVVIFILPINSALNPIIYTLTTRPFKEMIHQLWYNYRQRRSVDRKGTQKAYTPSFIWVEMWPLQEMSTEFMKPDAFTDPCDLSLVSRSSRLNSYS

Bile salt export pump = Bile salt export pump (Homo sapiens, UniProt O95342); assay: Inhibition of BSEP (unknown origin) by membrane vesicle assay; type: toxicity
[19] = Cytotoxicity against human THP-1 cells assessed as reduction of cell viability incubated for 48 hrs by resazurin reduction assay; type: toxicity, cell-based
Relaxin receptor 1 [20] = target: T4, Relaxin receptor 1 (Rattus norvegicus, UniProt Q6R6I6); assay: Agonist activity at rat RXFP1 expressed in T-Rex-CHO-K1 cells assessed as stimulation of cAMP production incubated for 60 mins by HTRF assay; type: functional, cell-based
T4 sequence (Q6R6I6 whole entry): T3 sequence (whole entry)

[21] = Metabolic stability in Han Wistar rat hepatocytes assessed as unbound intrinsic clearance measured […] at 1 uM after 120 mins by LC-MS/MS analysis; type: ADME, cell-based, Hepatocyte; settings: 2 h
[22] = target: Voltage-gated inwardly rectifying potassium channel KCNH2 (Homo sapiens, UniProt Q12809); assay: Inhibition of human ERG by automated electrophysiology recording; type: toxicity
[23] = Volume of distribution at steady state in Han Wistar rat at 0.73 micromol/kg, iv by LC-MS/MS analysis; type: ADME, organism-based; settings: in vivo, dose 0.73 µmol/kg, read-out: Vdss
[24] = Half-life in Han Wistar rat at 0.73 micromol/kg, iv by LC-MS/MS analysis; type: ADME, organism-based; settings: in vivo, dose 0.73 µmol/kg
[25] = target: T3, Relaxin receptor 1 (Rattus norvegicus); assay: Agonist activity at rat RXFP1 expressed in T-Rex-CHO-K1 cells assessed as stimulation of cAMP production by measuring maximal efficacy incubated for 60 mins by HTRF assay relative to control; type: functional, cell-based; settings: filed as agonist
[26] = Unbound Cmax in Sprague-Dawley rat at 3.5 mg/kg, iv administered via bolus followed by 6.0 mg/kg, iv administered via infusion for 3 hrs and measured 1 hrs post washout by LC-MS/MS analysis; type: ADME, organism-based; settings: in vivo
[27] = target: T3, Relaxin receptor 1 (Rattus norvegicus); assay: In vivo agonist activity at RXFP1 in Sprague-Dawley rat assessed as hemodynamic effect by measuring increase in heart rate at 3.5 mg/kg, iv administered via bolus followed by 6.0 mg/kg, iv administered via infusion for 3 hrs and measured 1 hrs post washout; type: functional, organism-based
[28] = Cytotoxicity against human HepG2 cells cultured under galactose condition assessed as reduction in cell viability; type: toxicity, cell-based
[29] = Clearance in Han Wistar rat at 0.73 micromol/kg, iv by LC-MS/MS analysis; type: ADME, organism-based; settings: in vivo, dose 0.73 µmol/kg

Chain of Voltage-gated inwardly rectifying potassium channel KCNH2 (Q12809 whole entry): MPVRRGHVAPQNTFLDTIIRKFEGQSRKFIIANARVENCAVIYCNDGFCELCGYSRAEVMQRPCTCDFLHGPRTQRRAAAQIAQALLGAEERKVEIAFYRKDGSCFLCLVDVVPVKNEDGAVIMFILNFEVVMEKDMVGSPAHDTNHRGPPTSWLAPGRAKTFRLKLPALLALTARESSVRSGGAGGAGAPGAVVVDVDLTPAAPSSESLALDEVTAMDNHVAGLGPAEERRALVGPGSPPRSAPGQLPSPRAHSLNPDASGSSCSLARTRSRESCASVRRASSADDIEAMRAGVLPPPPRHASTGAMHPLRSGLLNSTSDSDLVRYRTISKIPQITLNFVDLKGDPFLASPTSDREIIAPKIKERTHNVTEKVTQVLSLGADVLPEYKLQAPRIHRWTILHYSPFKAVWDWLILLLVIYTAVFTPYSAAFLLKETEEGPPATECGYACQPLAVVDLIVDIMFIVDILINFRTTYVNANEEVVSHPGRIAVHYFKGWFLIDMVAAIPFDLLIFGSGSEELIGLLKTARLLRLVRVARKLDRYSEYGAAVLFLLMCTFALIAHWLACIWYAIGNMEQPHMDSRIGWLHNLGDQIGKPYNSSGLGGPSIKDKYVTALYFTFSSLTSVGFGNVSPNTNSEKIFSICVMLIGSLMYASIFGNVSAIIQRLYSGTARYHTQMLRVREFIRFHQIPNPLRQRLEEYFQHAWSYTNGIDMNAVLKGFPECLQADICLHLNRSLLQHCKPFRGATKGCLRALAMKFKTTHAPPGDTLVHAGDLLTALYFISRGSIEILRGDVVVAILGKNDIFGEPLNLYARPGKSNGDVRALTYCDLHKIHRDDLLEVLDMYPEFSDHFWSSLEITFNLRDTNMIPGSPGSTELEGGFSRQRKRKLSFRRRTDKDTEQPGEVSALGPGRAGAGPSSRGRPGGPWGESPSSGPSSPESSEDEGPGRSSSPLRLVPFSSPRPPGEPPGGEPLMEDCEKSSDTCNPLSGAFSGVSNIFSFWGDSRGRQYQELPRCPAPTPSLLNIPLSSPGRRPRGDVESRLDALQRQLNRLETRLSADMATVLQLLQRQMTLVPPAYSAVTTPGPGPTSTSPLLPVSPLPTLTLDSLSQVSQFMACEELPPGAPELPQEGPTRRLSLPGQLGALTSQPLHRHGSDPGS
Chain of Bile salt export pump (O95342 whole entry): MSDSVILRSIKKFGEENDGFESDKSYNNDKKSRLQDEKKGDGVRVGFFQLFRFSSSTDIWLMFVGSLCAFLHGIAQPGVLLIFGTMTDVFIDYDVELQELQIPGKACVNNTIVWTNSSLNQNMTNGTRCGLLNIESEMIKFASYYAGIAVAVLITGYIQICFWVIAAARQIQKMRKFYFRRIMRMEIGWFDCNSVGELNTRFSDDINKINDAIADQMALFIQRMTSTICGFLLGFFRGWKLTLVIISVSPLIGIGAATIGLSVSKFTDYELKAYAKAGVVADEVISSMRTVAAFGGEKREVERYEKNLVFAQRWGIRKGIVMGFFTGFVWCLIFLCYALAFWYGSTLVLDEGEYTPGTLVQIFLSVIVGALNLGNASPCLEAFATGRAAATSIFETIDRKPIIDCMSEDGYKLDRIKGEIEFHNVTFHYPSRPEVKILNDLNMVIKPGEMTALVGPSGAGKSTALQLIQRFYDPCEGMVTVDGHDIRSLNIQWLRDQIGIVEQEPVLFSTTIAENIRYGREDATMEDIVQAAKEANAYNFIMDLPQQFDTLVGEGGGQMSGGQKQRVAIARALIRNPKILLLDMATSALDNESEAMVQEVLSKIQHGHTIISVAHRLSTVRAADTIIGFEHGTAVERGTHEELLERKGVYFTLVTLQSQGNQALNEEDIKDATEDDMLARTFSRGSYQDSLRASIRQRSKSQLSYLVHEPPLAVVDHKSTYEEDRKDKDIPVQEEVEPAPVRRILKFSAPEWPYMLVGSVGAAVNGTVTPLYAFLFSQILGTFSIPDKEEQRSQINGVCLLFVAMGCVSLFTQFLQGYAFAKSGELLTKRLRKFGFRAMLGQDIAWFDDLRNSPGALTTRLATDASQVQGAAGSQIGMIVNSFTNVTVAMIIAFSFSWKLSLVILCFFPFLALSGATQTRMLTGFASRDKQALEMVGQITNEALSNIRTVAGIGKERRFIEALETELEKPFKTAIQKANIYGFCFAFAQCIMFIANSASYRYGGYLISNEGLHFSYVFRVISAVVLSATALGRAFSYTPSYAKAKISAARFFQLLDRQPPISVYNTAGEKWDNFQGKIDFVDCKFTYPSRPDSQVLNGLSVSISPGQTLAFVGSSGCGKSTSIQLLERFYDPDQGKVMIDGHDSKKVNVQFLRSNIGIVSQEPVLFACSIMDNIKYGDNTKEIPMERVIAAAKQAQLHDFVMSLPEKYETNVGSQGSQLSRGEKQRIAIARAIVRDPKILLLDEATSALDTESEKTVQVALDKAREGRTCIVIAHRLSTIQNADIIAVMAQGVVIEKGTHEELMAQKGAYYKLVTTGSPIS

Activity [1]: inactive
logD at 3 h [2]: 3.55
Emax [3]: 124%
pEC50 (Relaxin receptor 1 [4]): 7.80
CL free [5]: 175 µL/min
hepatocyte CLint at 1 µM ([6]; cryopreserved hepatocytes, read-out: CLH): 7.7 µL/min/1e6 cells
Compound: COc1cc(F)c(O[C@H]2CC[C@@H](C(=O)O)CC2)cc1C(=O)N[C@H]1[C@@H](C(=O)Nc2ccc(F)c(C(F)(F)F)c2)[C@@H]2C=C[C@H]1C2

Activity [7]: 57%
pEC50 (Relaxin receptor 1 [4]): < 4.30
Compound: O=C(O)c1ccc(-c2cc(C(=O)N[C@H]3[C@@H](C(=O)Nc4cccc(S(=O)(=O)C(F)(F)F)c4)[C@@H]4C=C[C@H]3C4)ccc2F)cc1 (racemic)

CL free [8]: 121 µL/min/mg
hepatocyte CLint at 1 µM [9]: 16 µL/min/1e6 cells
logD at 3 h [2]: 3.4
microsomal CLint at 1 µM [10]: 6.3 µL/min/mg
pEC50 (Relaxin receptor 1 [4]): 6.70
CL free [11]: 457 µL/min
clearance [12]: 73 mL/min/kg
fraction unbound at 18 h, 5 µM [13]: 0.0031
Vd [14]: 0.92 L/kg
half-life [15]: 0.37 h
Compound: COc1cc(F)c(-c2ccc(C(=O)O)cc2)cc1C(=O)N[C@H]1[C@@H](C(=O)Nc2cccc(S(=O)(=O)C(F)(F)F)c2)[C@@H]2C=C[C@H]1C2 (racemic)

hepatocyte CLint at 1 µM [9]: 14 µL/min/1e6 cells
pEC50 (Relaxin receptor 1 [20]): 5.10
logD at 3 h [2]: 4.5
CL free [21]: 2 µL/min
Emax [3]: 103%
Vd [23]: 1.5 L/kg
pEC50 (Relaxin receptor 1 [4]): 5.40
CL free [5]: 7 10^3uL/min
half-life [24]: 2.3 h
Emax [25]: 128%
fraction unbound at 18 h, 5 µM [13]: 0.0013
fCmax [26]: 12 nM
CLH ([6]; hepatocytes, 2 h, 1 µM): 49 µL/min/1e6 cells
clearance [29]: 14 mL/min/kg
Compound: COc1cc(F)c(O[C@H]2CC[C@@](C)(C(=O)O)CC2)cc1C(=O)N[C@H]1[C@@H]2CC[C@@H](C2)[C@H]1C(=O)Nc1ccc(F)c(S(F)(F)(F)(F)F)c1
pIC50 [16]: 4.47
pIC50 [17]: 3.87
Activity [18]: inactive
pIC50 (Bile salt export pump): 4.01
IC50 at 48 h [19]: 11 µM
pIC50 [22]: 4.48
Activity [27]: inactive
pIC50 [28]: 3.91
